According to patent US20250161409A1, “COMPOSITIONS FOR TREATING HYPERHIDROSIS” (PROSPERA BIOTECH, S.L., priority 2022, published 2025):
No end group written: not given here.

Legend:
[1] = Attenuation of excessive sweating / hyperhidrosis (summary statements); format: in vivo
[2] = system: permeabilized chromaffin cells; assay: Inhibition of calcium-induced release of catecholamines in digitonin-permeabilized chromaffin cells; format: cell-based; settings: 1 mM peptide
Source text: The neuronal-exocytosis (neurosecretion) inhibiting capabilities of the known neuronal exocytosis inhibitors became evident through a test that evaluates the strength of said compounds in inhibiting the release of catecholamines induced by calcium in chromaffin cells permeabilized with the detergent digitonin, in accordance with the method described by Gutiérrez et al. (FEBS Lett 1995, 372, 39-43, and J. Biol. Chem. 1997, 272, 2634-2639); as well as an in vitro reconstitution test of the fusion complex (SNARE).
Briefly, the chromaffin cell cultures are incubated with [3 H]-epinephrine and [3 H]-norepinephrine, are permeabilized with 20 μM digitonin, and stimulated with calcium (10 μM), in the presence of the compounds to be tested, and the amount of radioactivity released by the cells to the extracellular medium, which is a reflection of the exocytosis of [3 H]-epinephrine and [3 H]-norepinephrine, is measured.

[3] = system: fusion protein complex (SNARE); assay: In vitro reconstitution (ELISA) of the fusion protein complex (SNARE); format: biochemical; settings: peptide present during the assembly of the fusion complex
Experimental: An additional test of in vitro reconstitution was performed to determine the ability of the peptides to interfere with the formation and stability of the fusion complex (SNARE). The test consists of evaluating the in vitro reconstitution of the fusion protein complex with recombinant proteins produced in Escherichia coli. The reconstitution tests, based on ELISA (Enzyme-Linked Immuno Assay) methods, involve the immobilization of protein SNAP-25 in 96-well plates and the subsequent formation of the fusion protein complex by adding the proteins VAMP and syntaxin in the presence and/or absence of the peptides of the invention. The detection of the complex was performed using an antibody against protein syntaxin (anti-syntaxin), followed by an antibody which recognizes the anti-syntaxin antibody, covalently tagged with a peroxidase. The amount of fusion protein complex was tracked by adding 1,2-phenylenediamine dichloride, whose reaction with the peroxidase produces a product with an orangish-yellow color that absorbs 492 nm in an acid medium.

Row | Compound | attenuation of excessive sweating ([1]; 0.1-0.01%) | inhibition of the release of catecholamines [2] | amount of fusion complex (SNARE) formed in presence of peptide [3] | attenuation of hyperhidrosis and excessive sweating ([1]; formulation containing 0.5-1.0% Argireline)
1 | CCCCCCCCC(=O)OCC(=O)NCc1cc(OC)c(O)cc1I [Calmpasin®, 2-((4-hydroxy-2-iodo-5-methoxybenzyl)amino)-2-oxoethyl nonanoate] | unable to attenuate excessive sweating |  |  | 
2 | SEQ. ID NO. 2: peptide from the amino end of SNAP-25 (ELEEMQRRADQLA) |  | approximately 35% | significant decrease | 
3 | Ac-Glu-Glu-Met-Gln-Arg-Arg (Ac-EEMQRR) [Argireline®, acetyl-hexapeptide commercialized under the tradename Argireline® by Lipotec, S. A] |  |  |  | modest effect
4 | SEQ. ID NO. 1: peptide from the amino end of SNAP-25; 6 amino acid peptide whose acetylated derivative is Argireline (EEMQRR) |  | approximately 20% | significant decrease | 
